Here are results for 72 compounds from ChEMBL document CHEMBL1135401, “Pharmacophore mapping of a series of 2,4-diamino-5-deazapteridine inhibitors of Mycobacterium avium complex dihydrofolate reductase” (J Med Chem, 2002).

Each structure is given as a SMILES string.

Test [1] has as its target T1, Dihydrofolate reductase (Mycobacterium avium, UniProt O30463).
T1 sequence (O30463 whole entry): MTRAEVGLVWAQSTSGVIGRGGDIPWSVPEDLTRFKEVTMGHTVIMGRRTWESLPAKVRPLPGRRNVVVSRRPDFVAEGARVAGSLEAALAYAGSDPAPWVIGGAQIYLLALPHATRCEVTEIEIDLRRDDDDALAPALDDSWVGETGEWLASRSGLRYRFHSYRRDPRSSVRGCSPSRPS
Description: Antimycobacterial activity against Mycobacterium avium complex dihydrofolate reductase (MAC DHFR).

Test [2] deals with T2, Dihydrofolate reductase (Homo sapiens, UniProt P00374).
T2 sequence (P00374 whole entry): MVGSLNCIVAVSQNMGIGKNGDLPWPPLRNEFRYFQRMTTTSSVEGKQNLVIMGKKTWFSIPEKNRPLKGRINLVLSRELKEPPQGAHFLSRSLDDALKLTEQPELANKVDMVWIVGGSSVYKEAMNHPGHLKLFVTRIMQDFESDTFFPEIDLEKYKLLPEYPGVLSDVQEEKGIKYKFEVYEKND
The test can be described thus: Antimycobacterial activity against human dihydrofolate reductase (hDHFR).

As to `Cc1cc(NCc2cnc3nc(N)nc(N)c3c2C)c(Cl)cc1F`, the IC50 (in general, the concentration that gives 50% inhibition) against Dihydrofolate reductase [1] came to 0.78 nM; against Dihydrofolate reductase [2] it was 33 nM.

With `Cc1cc(Br)cc(C)c1NCc1cnc2nc(N)nc(N)c2c1C`, the half-inhibitory concentration (IC50) against Dihydrofolate reductase [1] worked out at 5.3 nM; against Dihydrofolate reductase [2], 1900 nM.

Take `Cc1c(Cl)cccc1NCc1cnc2nc(N)nc(N)c2c1C`: the results for the 50% inhibitory concentration (IC50) at Dihydrofolate reductase [1] and at Dihydrofolate reductase [2] were 0.82 nM and 5.2 nM, respectively. Taken in the same sequence, the figures for `Cc1c(CNc2cc(Br)ccc2Br)cnc2nc(N)nc(N)c12` were 0.7 nM and 4.6 nM. As to `Cc1c(CNc2c3ccccc3cc3ccccc23)cnc2nc(N)nc(N)c12`, the half-inhibitory concentration (IC50) against Dihydrofolate reductase [1] was found to be 620 nM. For the compound `Cc1ccc(Cl)cc1NCc1cnc2nc(N)nc(N)c2c1C`, the 50% inhibitory concentration (IC50) against Dihydrofolate reductase [1] stood at 0.79 nM; against Dihydrofolate reductase [2], 6.1 nM. In the case of `Cc1c(CNc2cc(Cl)ccc2Cl)cnc2nc(N)nc(N)c12`, the IC50 against Dihydrofolate reductase [1] was 0.89 nM; against Dihydrofolate reductase [2], 8 nM. The matching figures for `Cc1cc(C)c(NCc2cnc3nc(N)nc(N)c3c2C)c(Cl)c1`: 3.8 nM and 850 nM. Taken in the same sequence, the figures for `Cc1c(CNc2ccc3ncccc3c2)cnc2nc(N)nc(N)c12` were 0.95 nM and 7.1 nM.

Take `COc1cc(-c2ccccc2)ccc1NCc1cnc2nc(N)nc(N)c2c1C`: the IC50 on Dihydrofolate reductase [1] amounted to 0.91 nM; against Dihydrofolate reductase [2], 68 nM.

On to `Cc1c(CNC2CCCc3ccccc32)cnc2nc(N)nc(N)c12` (stereo not given), for which the half-inhibitory concentration (IC50) was 280 nM at Dihydrofolate reductase [1] and 3400 nM against Dihydrofolate reductase [2].

`Cc1ccc(NCc2cnc3nc(N)nc(N)c3c2C)cc1Br`: the IC50 on Dihydrofolate reductase [1] was determined as 0.6 nM; against Dihydrofolate reductase [2] it was 3.7 nM.

Turning to `Cc1cc(Br)ccc1NCc1cnc2nc(N)nc(N)c2c1C`, the IC50 turned out to be 0.85 nM against Dihydrofolate reductase [1] and 5.9 nM against Dihydrofolate reductase [2]. Taken in the same sequence, the figures for `COc1cc(SCc2cnc3nc(N)nc(N)c3c2C)cc(OC)c1OC` were 4.5 nM and 1200 nM. For the compound `Cc1c(CNc2cnc3ccccc3c2)cnc2nc(N)nc(N)c12`, the 50% inhibitory concentration (IC50) was determined as 1.2 nM on Dihydrofolate reductase [1] and 12 nM on Dihydrofolate reductase [2]. `Cc1ccc(Cl)c(NCc2cnc3nc(N)nc(N)c3c2C)c1`: the half-inhibitory concentration (IC50) at Dihydrofolate reductase [1] was found to be 0.95 nM; on Dihydrofolate reductase [2], 44 nM. The matching figures for `CCc1c(CNc2cc(OC)ccc2OC)cnc2nc(N)nc(N)c12`: 2.8 nM and 1000 nM. Take `Cc1c(CNc2ccc3c(c2)Cc2ccccc2-3)cnc2nc(N)nc(N)c12`: the values for the half-inhibitory concentration (IC50) on Dihydrofolate reductase [1] and against Dihydrofolate reductase [2] were 0.86 nM and 6.7 nM, respectively. Taken in the same sequence, the figures for `COc1ccc(OC)c(SCc2cnc3nc(N)nc(N)c3c2C)c1` were 23 nM and 2500 nM. The matching figures for `Cc1c(CNc2ccc(Cl)c3ccccc23)cnc2nc(N)nc(N)c12`: 0.43 nM and 2 nM. Turning to `Cc1cc(NCc2cnc3nc(N)nc(N)c3c2C)ccc1Br`, the figures for the IC50 against Dihydrofolate reductase [1] and against Dihydrofolate reductase [2] were 0.87 nM and 6.1 nM, respectively. In the case of `Cc1cc(Cl)ccc1NCc1cnc2nc(N)nc(N)c2c1C`, at Dihydrofolate reductase [2], it took 2.8 nM to reach half-maximal inhibition (IC50). As to `COCc1c(CNc2cc(OC)ccc2OC)cnc2nc(N)nc(N)c12`, the IC50 worked out at 2400 nM against Dihydrofolate reductase [1] and 31000 nM against Dihydrofolate reductase [2].

`Cc1c(CNc2cc(F)ccc2F)cnc2nc(N)nc(N)c12`: the values for the IC50 against Dihydrofolate reductase [1] and on Dihydrofolate reductase [2] were 0.9 nM and 69 nM, respectively. Taken in the same sequence, the figures for `COCc1c(CNc2ccc(OC)c(OC)c2)cnc2nc(N)nc(N)c12` were 1200 nM and 6100 nM. Taken in the same sequence, the figures for `CCCOc1ccc(OCCC)c(NCc2cnc3nc(N)nc(N)c3c2C)c1` were 1 nM and 7300 nM.

As to `Cc1c(CNc2ccc3ccccc3c2)cnc2nc(N)nc(N)c12`, the IC50 amounted to 0.76 nM against Dihydrofolate reductase [1] and 10 nM against Dihydrofolate reductase [2]. The matching figures for `COc1cc(CCc2cnc3nc(N)nc(N)c3c2C)cc(OC)c1`: 1.5 nM and 990 nM. The matching figures for `Cc1c(CNC2c3ccccc3-c3ccccc32)cnc2nc(N)nc(N)c12`: 320 nM and 5300 nM. Taken in the same sequence, the figures for `COCc1c(CNc2cc(OC)c(OC)c(OC)c2)cnc2nc(N)nc(N)c12` were 550 nM and 1300 nM. `Cc1c(CNc2cc(C(F)(F)F)ccc2Br)cnc2nc(N)nc(N)c12`: the IC50 against Dihydrofolate reductase [1] is 0.82 nM; against Dihydrofolate reductase [2], 3.2 nM. On to `Cc1c(CNc2cccc3ncccc23)cnc2nc(N)nc(N)c12`, for which the IC50 against Dihydrofolate reductase [1] came out at 0.98 nM; on Dihydrofolate reductase [2], 4.3 nM. Regarding `COc1cc(OC)cc(N(C)Cc2cnc3nc(N)nc(N)c3c2C)c1`, the values for the half-maximal inhibitory concentration (IC50) on Dihydrofolate reductase [1] and on Dihydrofolate reductase [2] were 0.73 nM and 8.7 nM, respectively. Regarding `Cc1c(CSc2ccc(Cl)cc2)cnc2nc(N)nc(N)c12`, the IC50 at Dihydrofolate reductase [1] is 3.6 nM; against Dihydrofolate reductase [2], 590 nM.

Regarding `Nc1nc(N)c2cc(CNc3cccc4ccccc34)cnc2n1`, the results for the IC50 on Dihydrofolate reductase [1] and against Dihydrofolate reductase [2] were 86 nM and 820 nM, respectively.

Regarding `COc1ccc(OC)c(NCc2cnc3nc(N)nc(N)c3c2C)c1`, the results for the IC50 against Dihydrofolate reductase [1] and on Dihydrofolate reductase [2] were 1.1 nM and 1000 nM, respectively. The matching figures for `COc1ccc(C(F)(F)F)cc1N(C)Cc1cnc2nc(N)nc(N)c2c1C`: 1.2 nM and 36 nM.

As to `Cc1c(CN(C)c2cccc3c2CCCC3)cnc2nc(N)nc(N)c12`, the IC50 against Dihydrofolate reductase [1] was found to be 1.9 nM; against Dihydrofolate reductase [2], 710 nM. The matching figures for `COc1ccc(SCc2cnc3nc(N)nc(N)c3c2C)cc1OC`: 1.5 nM and 440 nM. Taken in the same sequence, the figures for `Cc1cccc(SCc2cnc3nc(N)nc(N)c3c2C)c1` were 16 nM and 850 nM. Taken in the same sequence, the figures for `COc1cc(NCc2cnc3nc(N)nc(N)c3c2)cc(OC)c1OC` were 240 nM and 3900 nM.

On to `Cc1ccc(C)c(NCc2cnc3nc(N)nc(N)c3c2C)c1`, for which the half-maximal inhibitory concentration (IC50) against Dihydrofolate reductase [1] worked out at 0.92 nM; at Dihydrofolate reductase [2] it was 57 nM. As for `Cc1c(CNc2ccc(Cl)cc2)cnc2nc(N)nc(N)c12`, the 50% inhibitory concentration (IC50) against Dihydrofolate reductase [1] stood at 0.84 nM; on Dihydrofolate reductase [2] it was 27 nM. With `Nc1nc(N)c2cc(CNc3ccc(Cl)cc3)cnc2n1`, the half-inhibitory concentration (IC50) on Dihydrofolate reductase [1] came out at 73 nM; on Dihydrofolate reductase [2] it was 670 nM.

On to `COc1cc(NCc2cnc3nc(N)nc(N)c3c2C)cc(OC)c1OC`, for which the IC50 against Dihydrofolate reductase [1] was 0.82 nM; against Dihydrofolate reductase [2] it was 4.7 nM.

As to `COc1ccc(C)c(NCc2cnc3nc(N)nc(N)c3c2C)c1`, the values for the concentration for half-maximal inhibition (IC50) against Dihydrofolate reductase [1] and against Dihydrofolate reductase [2] were 0.4 nM and 150 nM, respectively. Taken in the same sequence, the figures for `CCOc1ccc(OCC)c(N(C)Cc2cnc3nc(N)nc(N)c3c2C)c1` were 1.4 nM and 1000 nM. On to `COc1cc(NCc2cnc3nc(N)nc(N)c3c2C)cc(C(F)(F)F)c1`, for which the IC50 amounted to 0.93 nM against Dihydrofolate reductase [1] and 5.5 nM against Dihydrofolate reductase [2]. As to `Cc1c(CSc2cccc(Cl)c2)cnc2nc(N)nc(N)c12`, the half-inhibitory concentration (IC50) at Dihydrofolate reductase [1] is 3.9 nM; on Dihydrofolate reductase [2] it was 420 nM.

`COc1cccc(SCc2cnc3nc(N)nc(N)c3c2C)c1`: the concentration for half-maximal inhibition (IC50) is 2.7 nM at Dihydrofolate reductase [1] and 500 nM against Dihydrofolate reductase [2]. Compound `CCOc1ccc(OCC)c(NCc2cnc3nc(N)nc(N)c3c2C)c1` displayed a half-maximal inhibitory concentration (IC50) on Dihydrofolate reductase [2] of 2300 nM. That is a single-digit micromolar value.

On to `COc1ccc(C)cc1NCc1cnc2nc(N)nc(N)c2c1C`, for which the values for the half-inhibitory concentration (IC50) at Dihydrofolate reductase [1] and against Dihydrofolate reductase [2] were 0.86 nM and 300 nM, respectively. With `COc1ccc(C(F)(F)F)cc1NCc1cnc2nc(N)nc(N)c2c1C`, the IC50 against Dihydrofolate reductase [1] turned out to be 0.66 nM; at Dihydrofolate reductase [2] it was 2.7 nM. Taken in the same sequence, the figures for `Cc1c(CNc2cccc3c2CCCC3)cnc2nc(N)nc(N)c12` were 0.93 nM and 142 nM.

Take `COc1ccc(NCc2cnc3nc(N)nc(N)c3c2C)cc1OC`: the results for the 50% inhibitory concentration (IC50) against Dihydrofolate reductase [1] and on Dihydrofolate reductase [2] were 0.7 nM and 5.1 nM, respectively. Taken in the same sequence, the figures for `COc1ccc(OC)c(CCc2cnc3nc(N)nc(N)c3c2C)c1` were 47 nM and 2700 nM.

As for `COc1cc(Cl)c(C)cc1NCc1cnc2nc(N)nc(N)c2c1C`, the figures for the IC50 at Dihydrofolate reductase [1] and against Dihydrofolate reductase [2] were 0.94 nM and 10 nM, respectively. In the case of `Cc1c(CNc2ccc(OC(F)F)cc2)cnc2nc(N)nc(N)c12`, the concentration for half-maximal inhibition (IC50) is 1.1 nM against Dihydrofolate reductase [1] and 20 nM against Dihydrofolate reductase [2]. The compound `COCc1c(CNc2ccc(Cl)cc2)cnc2nc(N)nc(N)c12` displayed a concentration for half-maximal inhibition (IC50) against Dihydrofolate reductase [2] of 2600 nM. This lies in the single-digit micromolar range.

On to `Cc1c(CNc2cccc3cnccc23)cnc2nc(N)nc(N)c12`, for which the IC50 against Dihydrofolate reductase [1] came to 0.87 nM; against Dihydrofolate reductase [2], 4 nM.

Turning to `Cc1ccc(F)cc1NCc1cnc2nc(N)nc(N)c2c1C`, the IC50 worked out at 0.85 nM on Dihydrofolate reductase [1] and 19 nM at Dihydrofolate reductase [2].

As to `Cc1c(CNc2ccccc2OC(F)F)cnc2nc(N)nc(N)c12`, the IC50 against Dihydrofolate reductase [1] amounted to 0.87 nM; on Dihydrofolate reductase [2], 277 nM. Take `Cc1ccc(NCc2cnc3nc(N)nc(N)c3c2C)cc1Cl`: the IC50 against Dihydrofolate reductase [1] is 0.9 nM; against Dihydrofolate reductase [2] it was 6.7 nM. The matching figures for `Cc1ccc(F)c(NCc2cnc3nc(N)nc(N)c3c2C)c1`: 1.1 nM and 250 nM. Taken in the same sequence, the figures for `COc1ccc(NCc2cnc3nc(N)nc(N)c3c2C)cc1F` were 0.91 nM and 14 nM. Take `CCOc1ccc(NCc2cnc3nc(N)nc(N)c3c2C)cc1OC`: the half-maximal inhibitory concentration (IC50) against Dihydrofolate reductase [1] is 1.1 nM; on Dihydrofolate reductase [2] it was 18 nM. For the compound `CCc1c(CNc2cc(C)ccc2OC)cnc2nc(N)nc(N)c12`, the IC50 was 3.1 nM against Dihydrofolate reductase [1] and 370 nM at Dihydrofolate reductase [2]. In the case of `Cc1c(CNc2cc(C(F)(F)F)ccc2F)cnc2nc(N)nc(N)c12`, the IC50 came out at 0.86 nM on Dihydrofolate reductase [1] and 4.1 nM at Dihydrofolate reductase [2]. Taken in the same sequence, the figures for `Cc1c(CNc2ccc3ccc4cccc5ccc2c3c45)cnc2nc(N)nc(N)c12` were 0.88 nM and 3.8 nM. With `Cc1c(CNc2cccc(Cl)c2)cnc2nc(N)nc(N)c12`, the values for the IC50 at Dihydrofolate reductase [1] and at Dihydrofolate reductase [2] were 0.82 nM and 17 nM, respectively. The matching figures for `Cc1c(CNc2ccccc2Cl)cnc2nc(N)nc(N)c12`: 0.91 nM and 120 nM. For the compound `Cc1c(CNc2ccc(Cl)c(Cl)c2)cnc2nc(N)nc(N)c12`, the IC50 against Dihydrofolate reductase [1] worked out at 0.92 nM; at Dihydrofolate reductase [2], 5 nM.
